Legend:
[1] = biological target: recombinant human NSD2 (Homo sapiens (Human), UniProt O96028); assay: NSD2 inhibitory assay (modified RBC HotSpot HMT Assay); format: biochemical; conditions: 2 nM NSD2, chicken oligonucleosomes 0.05 mg/ml, 3H-SAM 1 μM, 1 hour at 30° C.
Method: Exemplary compounds were tested for NSD2 inhibitory activity using a modified RBC HotSpot HMT Assay.
A reaction mixture was prepared by adding oligonucleosomes from Chicken (0.05 mg/ml) to freshly prepared reaction buffer containing 50 mM Tris-HCl (pH 8.5), 50 mM NaCl, 5 mM MgCl2, 0.01% Brij35, 1 mM DTT, and 1% DMSO followed by the addition of recombinant human NSD2, (amino acids 2-end) with N-terminal His tag (2 nM; GenBank Accession No. NM_001042424; MW=155.5 kDa; expressed in Sf9 insect cells) and gentle mixing. The test compounds were diluted in DMSO, added to the reaction mixture in nanoliter amounts by using Acoustic Technology (Echo 550, LabCyte Inc. Sunnyvale, CA) and incubated for 20 minutes at room temperature. The reaction was initiated by the addition of S-Adenosyl-L-[methyl-^3H]methionine (3H-SAM; 1 μM), and the mixture was incubated for 1 hour at 30° C. The reaction mixture was delivered to filter paper and the methylated substrate was quantified by scintillation counting. Data analysis was performed using Excel and GraphPad Prism software for IC50 curve fits. For additional information on the histone methyltransferase assay, see, for example, Horiuchi K Y, et al., “Assay Development for Histone Methyltransferases,” Assay Drug Dev Technol. 2013 May; 11(4):227-36.

[2] = biological target: recombinant human NSD1 (Homo sapiens, UniProt Q96L73); assay: NSD1 inhibitory assay; format: biochemical; conditions: 2 nM NSD1, chicken oligonucleosomes 0.05 mg/ml, 3H-SAM 1 μM, 1 hour at 30° C.
Method: An exemplary compound was tested for NSD1 inhibitory activity.
A reaction mixture was prepared by adding oligonucleosomes from Chicken (0.05 mg/ml) to freshly prepared reaction buffer containing 50 mM Tris-HCl (pH 8.5), 50 mM NaCl, 5 mM MgCl2, 0.01% Brij35, 1 mM DTT, and 1% DMSO followed by the addition of recombinant human NSD1 (amino acids 2-end) with N-terminal His tag (2 nM) and gentle mixing. The test compounds were diluted in DMSO, added to the reaction mixture in nanoliter amounts by using Acoustic Technology (Echo 550, LabCyte Inc. Sunnyvale, CA) and incubated for 20 minutes at room temperature. The reaction was initiated by the addition of S-Adenosyl-L-[methyl-^3H] methionine (3H-SAM; 1 μM), and the mixture was incubated for 1 hour at 30° C. The reaction mixture was delivered to filter paper and the methylated substrate was quantified by scintillation counting. Data analysis was performed using Excel and GraphPad Prism software for IC50 curve fits. For additional information on the histone methyltransferase assay, see, for example, Horiuchi K Y, et al., “Assay Development for Histone Methyltransferases,” Assay Drug Dev Technol. 2013 May; 11(4):227-36.

Sequence of recombinant human NSD2 (O96028 2-1365 limits assumed): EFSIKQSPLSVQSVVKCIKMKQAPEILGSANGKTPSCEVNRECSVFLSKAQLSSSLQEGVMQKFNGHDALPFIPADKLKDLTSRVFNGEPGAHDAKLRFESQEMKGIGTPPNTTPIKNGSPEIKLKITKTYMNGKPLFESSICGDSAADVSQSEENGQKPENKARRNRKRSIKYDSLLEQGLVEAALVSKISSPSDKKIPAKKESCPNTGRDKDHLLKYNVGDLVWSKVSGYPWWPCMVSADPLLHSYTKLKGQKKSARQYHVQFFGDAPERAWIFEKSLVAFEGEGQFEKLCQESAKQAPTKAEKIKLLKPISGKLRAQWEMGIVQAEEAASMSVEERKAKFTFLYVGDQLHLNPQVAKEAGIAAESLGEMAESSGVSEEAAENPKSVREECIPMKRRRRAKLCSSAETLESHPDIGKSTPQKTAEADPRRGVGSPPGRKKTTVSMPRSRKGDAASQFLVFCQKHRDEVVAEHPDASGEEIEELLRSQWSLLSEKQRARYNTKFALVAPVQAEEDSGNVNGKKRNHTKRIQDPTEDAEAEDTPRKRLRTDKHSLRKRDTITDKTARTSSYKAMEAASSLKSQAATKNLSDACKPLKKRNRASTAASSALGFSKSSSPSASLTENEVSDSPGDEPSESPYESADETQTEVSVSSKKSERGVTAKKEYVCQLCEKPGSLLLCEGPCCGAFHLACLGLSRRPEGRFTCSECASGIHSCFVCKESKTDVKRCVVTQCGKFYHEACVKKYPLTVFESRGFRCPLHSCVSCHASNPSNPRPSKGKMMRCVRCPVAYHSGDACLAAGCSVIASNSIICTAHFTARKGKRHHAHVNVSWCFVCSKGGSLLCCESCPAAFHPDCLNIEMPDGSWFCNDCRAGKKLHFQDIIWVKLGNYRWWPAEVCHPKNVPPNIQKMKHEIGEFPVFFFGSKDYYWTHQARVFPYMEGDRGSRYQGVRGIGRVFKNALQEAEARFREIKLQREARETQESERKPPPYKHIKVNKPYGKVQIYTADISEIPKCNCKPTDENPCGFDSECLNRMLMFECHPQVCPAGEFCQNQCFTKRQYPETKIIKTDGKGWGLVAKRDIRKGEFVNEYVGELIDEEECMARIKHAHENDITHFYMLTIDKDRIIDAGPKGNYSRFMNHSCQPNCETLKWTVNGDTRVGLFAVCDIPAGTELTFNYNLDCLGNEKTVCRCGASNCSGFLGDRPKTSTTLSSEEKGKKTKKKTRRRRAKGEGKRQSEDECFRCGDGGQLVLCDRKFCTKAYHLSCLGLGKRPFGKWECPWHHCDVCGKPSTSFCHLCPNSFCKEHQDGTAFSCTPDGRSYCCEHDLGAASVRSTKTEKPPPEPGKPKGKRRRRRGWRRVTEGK

IC50 [1] | IC50 [2] | SMILES
2 to 20 nM | – | Nc1ncnc2c1ncn2Cc1cc(-c2cc(F)c(O)cc2F)ncc1N1CCC[C@](N)([C@H](O)C(F)F)C1 [Compound J, 4-(5-((R)-3-amino-3-((S)-2,2-difluoro-1-hydroxyethyl)piperidin-1-yl)-4-((6-amino-9H-purin-9-yl)methyl)pyridin-2-yl)-2,5-difluorophenol]
< 2 nM | < 1 nM | COC(=O)COc1cc(F)c(-c2cc(Cn3cnc4c(N)ncnc43)c(N3CCC[C@](N)([C@H](O)C(F)F)C3)cn2)cc1F [III-35, methyl 2-(4-(5-((R)-3-amino-3-((S)-2,2-difluoro-1-hydroxyethyl)piperidin-1-yl)-4-((6-amino-9H-purin-9-yl)methyl)pyridin-2-yl)-2,5-difluorophenoxy)acetate]
